Assay results published in patent publication US8580511B2, “Two-color fluorescent reporter for alternative pre-mRNA splicing” (The Regents of the University of California, priority 2006, dated 2013).
Like-named read-outs stand apart in the source and are kept apart here.

Tested on: exon 10 of the human tau gene
Assay: High-throughput small molecule screen with two-color fluorescent (GFP/RFP) splicing reporter in stable cell line
Type: cell-based
Description: Exon 10 of the human tau gene (SEQ ID NO:9; see also, GenBank Accession No. AF027494) containing short stretches (about 50-100 nucleotides) of each of the flanking introns (i.e., intronic sequences from introns 9 and 10; see, e.g., Wang et al., J. Neurochem., 88:1078-1090 (2004)) was cloned into the EcoRI and BamHI restriction sites of the reporter intron (SEQ ID NO:2), which interrupts the start codon of the GFP open reading frame. The clone was linearized using DraIII and transfected into adherent mammalian cells.
In particular, the background was calculated by measuring the fluorescence of each channel after excitation with shorter wavelengths than the optimal for the reporter proteins. This measurement was corrected using data from non-reporter cells before being subtracted from the reporter-expressing cells as background. The following formulas describe the background subtraction procedure: […]
The two-color fluorescent reporter constructs described above carrying exon 10 of the human tau gene were used in high-throughput small molecule screens of a library of enzyme inhibitors (FIG. 6A) and a library of FDA approved drugs (FIG. 6B). The stable cell line was plated at density of 5000 cells per well in 384-well plates. HEK 293 cells to be used as the non-fluorescent control for background subtraction were plated in separate plates at the same density. Each library was applied to the plates and the cells were incubated for 16 hours. The media was removed and the cells were lysed in RIPA buffer (1% Nonidet P-40, 1% sodium deoxycholate, 0.1% SDS, 150 mM NaCl, 10 mM sodium phosphate (pH 7.2), 2 mM EDTA, 50 mM NaF, 5 mM beta-glycerophosphate). The fluorescence intensities were measured using an Analyst AD plate reader. The background was subtracted as described above and the logarithm at base 2 was calculated for the ratio of RFP to GFP fluorescence intensities (log-ratio) and the product of the GFP and RFP fluorescence intensities (log-expression) for each data point. The log-ratios were normalized by Lowess regression using the log-expression as an independent variable.

[1] = log2 of RFP/GFP fluorescence, background subtracted, Lowess normalized, enzyme inhibitor library, 16 hours incubation, DMSO control −0.21

SMILES	Log-ratio [1]	Log-ratio
CCCCCCCCCCCCCCCC(=O)OC(CC(=O)O)C[N+](C)(C)C.[Cl-] (racemic) [PALMITOYL-DL-CARNITINE CI]	0.61	–
Nc1ncnc2c1c(I)cn2[C@@H]1O[C@H](CO)[C@@H](O)[C@H]1O [5-IODOTUBERCIDIN]	−1.03	–
CC(C)(C)c1cc(/C=C(\C#N)C(N)=S)cc(C(C)(C)C)c1O [AG-879]	1.59	–
CN(CCc1ccc(Cl)c(Cl)c1)CC(O)COc1ccc(NS(C)(=O)=O)cc1 (stereo not drawn) [AM 92016]	0.44	–
CCCCc1oc2ccccc2c1C(=O)c1cc(I)c(OCCN(CC)CC)c(I)c1 [AMIODARONE]	0.63	–
CCCCC/C=C\C/C=C\C/C=C\C/C=C\CCCC(=O)N[C@@H](C)C(=O)O [Arachidonoyl alanine]	0.38	–
CC(C)COCC(CN(Cc1ccccc1)c1ccccc1)N1CCCC1 (stereo not drawn) [BEPRIDIL]	0.74	–
CC1(C(=O)O)C2CCC(O2)C1(C)C(=O)O (stereo not drawn) [CANTHARIDIC ACID]	−1.72	–
NCCNS(=O)(=O)c1cccc2cnccc12 [Compound H-9]	0.61	–
N#CC(=C(/N)Sc1ccccc1N)/C(C#N)=C(\N)Sc1ccccc1N [Compound U-0126]	–	0.44
N/C(=N\C(=O)c1nc(Cl)c(N)nc1N)NCc1ccc(Cl)c(Cl)c1 [DICHLOROBENZAMIL]	1.75	–
CCCCC/C=C\C/C=C\C/C=C\CCCCCCC(=O)NCC(=O)O [Dihomo-gamma-linolenoyl glycine]	0.49	–
Cc1cc(O)c2c(=O)c3c(O)cc(O)c4c5c(O)cc(O)c6c(=O)c7c(O)cc(C)c8c1c2c(c34)c(c78)c65 [HYPERICIN]	1.14	–
COc1ccc(S(=O)(=O)N(CCO)c2ccccc2CN(C)C/C=C/c2ccc(Cl)cc2)cc1 [KN-93]	0.75	–
CN(C)C(=O)C(CCN1CCC(O)(c2ccc(Cl)cc2)CC1)(c1ccccc1)c1ccccc1 [LOPERAMIDE]	–	0.72
O=c1cc(N2CCOCC2)oc2c(-c3ccccc3)cccc12 [LY 294002]	0.85	–
O=S(=O)(c1cccc2c(I)cccc12)N1CCCNCC1 [ML-7]	0.72	–
O=S(=O)(c1cccc2c(Cl)cccc12)N1CCCNCC1 [ML-9]	0.52	–
COC(=O)C1=C(C)NC(C)=C(C(=O)OCCN(C)Cc2ccccc2)C1c1cccc([N+](=O)[O-])c1 (stereo not drawn) [NICARDIPINE]	0.68	–
C=C(C)[C@H]1O[C@H]2CC[C@@]3(C)[C@@](O)(CC[C@H]4[C@@H]5OC(C)(C)[C@H]6C[C@@H]7C(=C)Cc8c(Cl)cc9[nH]c(c5c9c8[C@@]76O)[C@@]43C)[C@@]23O[C@H]3[C@H]1O [PENITREM A]	0.56	–
O=c1[nH]c2ccccc2n1C1CCN(CCCC(c2ccc(F)cc2)c2ccc(F)cc2)CC1 [PIMOZIDE]	0.69	–
C=C[C@H]1C[N@@]2CC[C@H]1C[C@H]2[C@H](O)c1ccnc2ccc(OC)cc12 [QUININE]	0.43	–
CC(=O)c1c(O)c(C)c(O)c(Cc2c(O)c3c(c(C(=O)/C=C/c4ccccc4)c2O)OC(C)(C)C=C3)c1O [ROTTLERIN]	1.27	–
Oc1ccc(-c2nc(-c3ccncc3)c(-c3ccc(F)cc3)[nH]2)cc1 [SB-202190]	0.46	–
CC(C)(C)c1cc(C=C(C#N)C#N)cc(C(C)(C)C)c1O [TYRPHOSTIN 9]	1.69	–
N#C/C(=C\c1ccc(O)c(O)c1)C(N)=S [TYRPHOSTIN 47]	0.48	–
COC[C@H]1OC(=O)c2coc3c2[C@@]1(C)C1=C(C3=O)[C@@H]2CCC(=O)[C@@]2(C)C[C@H]1OC(C)=O [WORTMANNIN]	1.37	–
